Source: PubChem BioAssay AID588756 (Broad Institute, 2011)
Activity calls are given as the source filed them.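 Rule for the calls: active = a falling-signal curve whose fitted AC50 is at most ten times the top valid dose; inconclusive = flat fit with 30 to 70% inhibition, or a poor fit; inactive = the rest.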

Target: Aurora kinase B (Homo sapiens) (UniProt Q96GD4)
Assay: AURKB enzyme activity inhibitors – biochemical, scintillation, dry powder, set 2, counter-screen for STK33 inhibitor project, dose response (AID 588756)
Conditions: gamma-32P-ATP (ATP at Km), P30 filter scintillation

Sequence of Aurora kinase B (Homo sapiens) (Q96GD4 whole entry, looked up): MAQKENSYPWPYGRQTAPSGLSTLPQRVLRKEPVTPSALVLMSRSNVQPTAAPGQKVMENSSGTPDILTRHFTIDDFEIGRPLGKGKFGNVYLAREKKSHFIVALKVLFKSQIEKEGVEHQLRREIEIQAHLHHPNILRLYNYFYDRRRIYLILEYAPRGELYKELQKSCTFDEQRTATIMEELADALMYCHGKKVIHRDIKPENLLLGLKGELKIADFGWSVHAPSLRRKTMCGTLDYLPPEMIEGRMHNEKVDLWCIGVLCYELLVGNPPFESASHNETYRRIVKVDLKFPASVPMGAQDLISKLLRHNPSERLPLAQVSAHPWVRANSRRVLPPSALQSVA

COc1cc(/C=C2\S/C(=N/c3ccccn3)NC2=O)ccc1O
activity change, negative = inhibition (at 10 µM (top of the series)): inactive

COc1cc(/C=C2\SC(N)=NC2=O)ccc1O
AC50: > 20 µM (inactive)

COc1cc(/C=C2\SC(=Nc3ccccc3Cl)NC2=O)ccc1O
AC50: 10.1 µM

COc1cc(/C=C2\SC(=NCc3ccccc3)NC2=O)ccc1O
AC50: 2.92 µM

COc1cc(/C=C2\SC(=Nc3ccccc3F)NC2=O)ccc1O
AC50: > 20 µM (inactive)
